The results in this text go back to ChEMBL document CHEMBL1201862, “PubChem BioAssay data set” (2004).

Test systems include MDA-MB-435; ACHN; SN12C; 786-0; CAKI-1; M14; SW-620; MOLT-4; MDA-MB-231; HCT-116; SR; NCI-H522; NCI-H23; UO-31; CCRF-CEM; OVCAR-8; COLO 205; TK-10; RXF 393; LOX IMVI.
What all share (experiment): NCI-60 cell line screen, 48 h

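All cell lines were grown in 96-well plates and treated with compound for 48 hours. Abbreviation: GI50, concentration required for 50% inhibition of growth.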 The source made the active and inactive calls. Cut-off read from the data, not from the text of the source: active = GI50 up to about 1.1 µM and inactive = higher. Bounds are passed on as bounds.

Regarding `Cc1ncc([N+](=O)[O-])n1CCNC(=O)CCCCCn1ccnc1[N+](=O)[O-]`, the GI50 in the experiment on MDA-MB-435, with ACHN, with SN12C, in the experiment with 786-0, with CAKI-1 and with M14 was > 100 µM (inactive) each time. Also, the GI50 in the experiment on SW-620, in the experiment on MOLT-4, in the experiment with MDA-MB-231, with HCT-116, with SR and in the experiment on NCI-H522 was > 100 µM (inactive) each time. For the same compound, the GI50 in the experiment with NCI-H23 was > 100 µM (inactive); with UO-31 it was > 100 µM (inactive); with CCRF-CEM it was > 100 µM (inactive); with OVCAR-8 it was > 100 µM (inactive); in the experiment with COLO 205, 43.6 µM (inactive).

Consider `N=c1sc2ccccc2n1CC[S-].c1ccc2c(c1)sc1[n+]2CCS1`, for which the GI50 is 15.7 µM (inactive) in the experiment with MDA-MB-435; 22.8 µM (inactive) in the experiment with TK-10; 16.3 µM (inactive) in the experiment with ACHN; 21.1 µM (inactive) with SN12C; 16.8 µM (inactive) in the experiment on 786-0; 16.9 µM (inactive) in the experiment with CAKI-1. Moreover, the GI50 with M14 is 16.1 µM (inactive); in the experiment with SW-620, 17.1 µM (inactive); in the experiment on MOLT-4, 3 µM (inactive); in the experiment on MDA-MB-231 it was 17 µM (inactive); in the experiment on HCT-116, 16.9 µM (inactive); with RXF 393 it was 20.7 µM (inactive). The GI50 was 16.9 µM (inactive) with LOX IMVI; 18 µM (inactive) in the experiment with NCI-H522; 16.1 µM (inactive) in the experiment on NCI-H23; 12.5 µM (inactive) in the experiment on UO-31; 9.06 µM (inactive) in the experiment with CCRF-CEM; 17.1 µM (inactive) with OVCAR-8. Besides, in the experiment with COLO 205, the GI50 is 14.3 µM (inactive).

For the compound `O=C(O)Cc1ccc([N+](=O)[O-])cc1[N+](=O)[O-]`, the GI50 in the experiment with MDA-MB-435, with TK-10, with ACHN, in the experiment on SN12C, with 786-0 and in the experiment on CAKI-1 was > 100 µM (inactive) each time. For the same compound, the GI50 in the experiment on M14, with SW-620, in the experiment on MOLT-4, in the experiment with MDA-MB-231, in the experiment on HCT-116 and in the experiment on RXF 393 was > 100 µM (inactive) in each case. For the same compound, the GI50 with LOX IMVI, with NCI-H522, in the experiment with NCI-H23, in the experiment on UO-31, with CCRF-CEM and in the experiment on OVCAR-8 was > 100 µM (inactive) each time. The GI50 in the experiment on COLO 205 is > 100 µM (inactive).

Turning to `COc1c(Sc2c(SCSc3cnc4ccccc4c3Sc3cnc4ccccc4c3OC)cnc3ccccc23)cnc2ccccc12`, the GI50 is 26.9 µM (inactive) in the experiment with MDA-MB-435; 38.6 µM (inactive) with TK-10; 82.6 µM (inactive) in the experiment on ACHN; > 100 µM (inactive) in the experiment with SN12C; > 100 µM (inactive) in the experiment with 786-0; > 100 µM (inactive) in the experiment on CAKI-1. Moreover, the GI50 in the experiment with M14 was > 100 µM (inactive); with SW-620, 31.6 µM (inactive); in the experiment on MOLT-4, 55.8 µM (inactive); with MDA-MB-231, 29 µM (inactive); with HCT-116, 46.5 µM (inactive); in the experiment on SR, 21.8 µM (inactive). Moreover, the GI50 in the experiment with LOX IMVI is > 100 µM (inactive); with NCI-H522, 19.2 µM (inactive); in the experiment with NCI-H23, 54.8 µM (inactive); in the experiment on UO-31, 24.7 µM (inactive); in the experiment with CCRF-CEM, > 100 µM (inactive); in the experiment on OVCAR-8, 31.7 µM (inactive). In addition, the GI50 with COLO 205 was > 100 µM (inactive).

Regarding `Cc1nc2c(o1)C(=O)c1ccccc1/C2=N/C1CCCCC1N` (stereo not given), the GI50 was 0.162 µM (active) in the experiment on MDA-MB-435; 1.98 µM (inactive) in the experiment on TK-10; 0.649 µM (active) in the experiment with ACHN; 0.386 µM (active) in the experiment with SN12C; 1.77 µM (inactive) in the experiment on 786-0; 1.71 µM (inactive) in the experiment on CAKI-1. Moreover, the GI50 in the experiment with M14 was 0.425 µM (active); with SW-620 it was 0.418 µM (active); in the experiment with MOLT-4, 0.273 µM (active); in the experiment with MDA-MB-231 it was 0.373 µM (active); in the experiment with HCT-116 it was 0.259 µM (active); in the experiment with SR, 0.22 µM (active). Moreover, the GI50 is 0.16 µM (active) with LOX IMVI; 1.06 µM (active) in the experiment on NCI-H522; 0.0975 µM (active) with NCI-H23; 1.64 µM (inactive) in the experiment on UO-31; 0.247 µM (active) in the experiment on CCRF-CEM; 0.274 µM (active) in the experiment with OVCAR-8. Besides, the GI50 with COLO 205 is 1.66 µM (inactive).

On to `COc1cc2c(cc1OC)CCc1cc(OC)c(OC)cc1CC2`, for which the GI50 in the experiment with MDA-MB-435, in the experiment on TK-10, in the experiment with ACHN, in the experiment with SN12C, with 786-0 and in the experiment with CAKI-1 was > 100 µM (inactive) throughout. Further, the GI50 in the experiment with M14, in the experiment on SW-620, with MOLT-4, in the experiment with MDA-MB-231, in the experiment on HCT-116 and with SR was > 100 µM (inactive) each time. For the same compound, the GI50 with LOX IMVI, with NCI-H23, in the experiment on UO-31, with CCRF-CEM, with OVCAR-8 and with COLO 205 was > 100 µM (inactive) each time.

As to `COc1ccc2[nH]c3c(c2c1)CCc1ccccc1-3`, the GI50 in the experiment with MDA-MB-435 is > 100 µM (inactive); with TK-10 it was > 100 µM (inactive); in the experiment on ACHN, > 100 µM (inactive); in the experiment with SN12C, > 100 µM (inactive); in the experiment on 786-0, 50.7 µM (inactive); in the experiment on CAKI-1, > 100 µM (inactive). Further, the GI50 with M14 is > 100 µM (inactive); in the experiment on SW-620, > 100 µM (inactive); in the experiment on MOLT-4 it was 80.9 µM (inactive); with MDA-MB-231, 20.2 µM (inactive); in the experiment on HCT-116 it was > 100 µM (inactive); with SR, 84.9 µM (inactive). In addition, the GI50 in the experiment on LOX IMVI is 78.9 µM (inactive); in the experiment on NCI-H522 it was 26.7 µM (inactive); with NCI-H23, 41.7 µM (inactive); with UO-31 it was 70.1 µM (inactive); in the experiment on CCRF-CEM, > 100 µM (inactive); with OVCAR-8 it was 27.7 µM (inactive). The GI50 in the experiment with COLO 205 is > 100 µM (inactive).

As for `CCCCCCC(=O)OC[n+]1cccc(-c2c(COC(=O)NC(C)C)c(COC(=O)NC(C)C)c3n2CCC3)c1`, the GI50 was 70.8 µM (inactive) in the experiment with MDA-MB-435; 56.2 µM (inactive) in the experiment on TK-10; 21.4 µM (inactive) in the experiment on ACHN; 31 µM (inactive) in the experiment on SN12C; 21.6 µM (inactive) in the experiment on 786-0; 11 µM (inactive) in the experiment with CAKI-1. Moreover, the GI50 in the experiment on M14 was 39.2 µM (inactive); in the experiment with SW-620 it was 28.4 µM (inactive); in the experiment on MOLT-4, 11.6 µM (inactive); with MDA-MB-231 it was 47.3 µM (inactive); with HCT-116, 32.8 µM (inactive); in the experiment with RXF 393, 20.4 µM (inactive). Besides, the GI50 is 22 µM (inactive) in the experiment on LOX IMVI; 22.6 µM (inactive) in the experiment with NCI-H522; 26.9 µM (inactive) in the experiment with NCI-H23; 26.2 µM (inactive) in the experiment with UO-31; 9.55 µM (inactive) with CCRF-CEM; 34.4 µM (inactive) with OVCAR-8. The GI50 with COLO 205 is 51.4 µM (inactive).

For the compound `CN(C)C1C(CO)OC(n2cnc3c(N)ncnc32)C1O` (stereo not given), the GI50 with MDA-MB-435, in the experiment with TK-10, in the experiment on ACHN, in the experiment on SN12C, in the experiment with 786-0 and in the experiment with CAKI-1 was > 100 µM (inactive) in each case. The GI50 in the experiment on M14, with SW-620, with MOLT-4, in the experiment on MDA-MB-231, in the experiment with HCT-116 and in the experiment with SR was > 100 µM (inactive) each time. The GI50 in the experiment with LOX IMVI, with NCI-H522, in the experiment on NCI-H23, in the experiment with UO-31, with CCRF-CEM and with OVCAR-8 was > 100 µM (inactive) each time. In addition, in the experiment on COLO 205, the GI50 was > 100 µM (inactive).

With `Cc1cc(OCc2nnc3n2S(=O)(=O)c2ccccc2N3C)ccc1Cl`, the GI50 was > 100 µM (inactive) in the experiment on MDA-MB-435; 29.9 µM (inactive) in the experiment with TK-10; 19.9 µM (inactive) with ACHN; 32.4 µM (inactive) in the experiment on SN12C; 11.8 µM (inactive) in the experiment on 786-0; 28.8 µM (inactive) in the experiment with CAKI-1. The GI50 was > 100 µM (inactive) in the experiment on M14; > 100 µM (inactive) in the experiment on SW-620; 55 µM (inactive) with MOLT-4; 16.3 µM (inactive) with MDA-MB-231; 39.5 µM (inactive) in the experiment with HCT-116; 21.2 µM (inactive) in the experiment on RXF 393. For the same compound, the GI50 in the experiment with LOX IMVI is 33.7 µM (inactive); in the experiment on NCI-H522, 6.79 µM (inactive); with NCI-H23 it was 34.4 µM (inactive); with UO-31 it was 58.3 µM (inactive); in the experiment with CCRF-CEM, 15.7 µM (inactive); in the experiment on OVCAR-8, 26.3 µM (inactive). Further, in the experiment with COLO 205, the GI50 is > 100 µM (inactive).

`Cc1cccc(NC(=O)CC(=O)N2N=C(N3c4ccccc4Sc4ccccc43)CC2c2ccccc2)c1` (stereo not given): the GI50 in the experiment on MDA-MB-435, with TK-10, in the experiment with ACHN, with SN12C, in the experiment with 786-0 and with M14 was > 100 µM (inactive) each time. Moreover, the GI50 in the experiment on SW-620, in the experiment with MOLT-4, in the experiment on MDA-MB-231, in the experiment on HCT-116, in the experiment on SR and in the experiment with RXF 393 was > 100 µM (inactive) in each case. Also, the GI50 in the experiment on NCI-H522, with NCI-H23, in the experiment on UO-31, in the experiment on CCRF-CEM, in the experiment with OVCAR-8 and in the experiment on COLO 205 was > 100 µM (inactive) throughout.
